# In US7763426B2, “Probes and methods for detection of Escheridia coli and antibiotic resistance” (priority 2004, dated 2010):
# “Also recorded” adds a separate entry of the source. {Fluorescein} = fluorescein label (binding site for anti-fluorescein Fab-HRP); {Biotin} = biotin (capture probe anchor)
# B1: PM: Proteus mirabilis probe pair: capture 202 (35 mer) SEQ ID NO: 3, detector 162 (35 mer) SEQ ID NO: 4 (nucleic acid, listed as Proteus mirabilis)
# DNA 1: GGGTTCATCCGATAGTGCAAGGTCCGAAGAGCCCC
# DNA 2: GGTCCGTAGACATTATGCGGTATTAGCCACCGTTT
# modifications: DNA 1: 5' {Biotin}, sugars by position and backbone not given here; DNA 2: 5' {Fluorescein}, sugars by position and backbone not given here
# B2: EC: Escherichia coli probe pair: capture 449 (35 mer) SEQ ID NO: 1, detector 408 (35 mer) SEQ ID NO: 2 (nucleic acid, listed as Escherichia coli)
# DNA 1: GTCAATGAGCAAAGGTATTAACTTTACTCCCTTCC
# DNA 2: CTGAAAGTACTTTACAACCCGAAGGCCTTCTTCAT
# modifications: DNA 1: 5' {Biotin}, sugars by position and backbone not given here; DNA 2: 5' {Fluorescein}, sugars by position and backbone not given here
# Key:
# bacterial 16S rRNA [1] = assay: Sensor validation using control ATCC bacterial strains, UTI Chip with 7-detector-probe mixture (Example 3); assay type: binding
# Excerpt: The following American Type Culture Collection (ATCC) strains were obtained from the UCLA Clinical Microbiology Laboratory: Escherichia coli strain 35218, Klebsiella pneumoniae strain 13883, K. oxytoca strain 49131, Enterobacter aerogenes strain 13048. E. cloacae strain 13047, Proteus mirabilis strain 12453, Pseudomonas aeruginosa strain 10145, Citrobacter freundii strain 8090, and Enterococcus faecalis strain 49532. Additional strains of uropathogenic bacteria were obtained from the UCLA Uropathogen Specimen Bank: E. coli strain Ec103, K. pneumoniae strain Kp295, P. mirabilis strain Pm278, P. aeruginosa strain Pa3, and E. faecalis strain Eo111. Isolation of uropathogens from clinical urine specimens was approved by the UCLA and VA Greater Los Angeles Healthcare System institutional Review Boards. The identity of all clinical strains was determined by standard biochemical assays and verified by 16S rRNA gene sequencing. The 16S rRNA genes were PCR amplified with universal primers 8UA and 1485B.^17 The amplified product was purified by using the QIAquick PCR purification kit (QIAGEN, Inc., Chatsworth, Calif.) and directly sequenced using primer pairs 8UA/907B and 774A/1485B as described previously.^18 DNA sequencing was performed at the W. M. Keck Foundation Biotechnology Resource Laboratory (New Haven, Conn.). Isolates were inoculated into Brucella broth with 15% glycerol (BBL, Maryland) and were stored at −70° C. Bacteria were grown overnight in Luria Broth (LB), inoculated into LB and grown to logarithmic phase as measured by OD600. Concentration of the logarithmic phase specimens was determined by serial plating, typically yielding 10^7-10^8 bacteria/ml.
# Logarithmic phase bacterial cells were concentrated by centrifugation at 10.000 rpm for 5 min, Lysis of bacterial cells was performed by addition of 10 μl of one or more of the following […]. 0.1% Triton X-100 in 20 mM Tris-HCl, pH 8.0, 2 mM EDTA and 1 mg/ml lysozyme (Sigma). After incubation at room temperature, 50 μl of the detector probe (0.25 μM) in 2.5% bovine serum albumin (Sigma)—1 M phosphate buffer, pH 7.4, was added to the bacterial lysate. The detector probe/bacterial lysate mixture was incubated for 10 min at 65° C. to allow hybridization of the detector probe to target rRNA. 4 μl of the bacterial lysate/detector probe mixture was deposited on each of the working electrodes in the sensor array. The sensor array was incubated for 10 min at 65° C. in a humidified chamber. After washing and drying, 4 μl of 0.5 U/mil anti-fluorescein horseradish peroxidase (HRP) Fab conjugate (Roche, diluted in 0.5% casein in 1 M sodium phosphate buffer, pH 7.4) were deposited on each of the working electrodes for 10-15 min. After washing and drying, a prefabricated plastic well manifold (GeneFluidics) was bonded to the sensor array. 50 μl of HRP substrate solution (K-Blue Aqueous TMB, Neogen, Lexington, Ky.) was placed on each of the sensors in the array so as to cover all three of the electrodes. Measurements were immediately and simultaneously taken for all 16 sensors. The entire assay protocol was completed within 45 min from the initiation of bacterial lysis. Amperometric current vs. time was measured using a multichannel potentiostat (GeneFluidics). The voltage was fixed at −200 mV (vs. reference), and the electroreduction current was measured at 60 sec after the HRP redox reaction reached steady state. Negative controls were included in each experiment in which 1 M phosphate buffer, pH 7.4, was used as the target instead of bacterial lysate. All samples were analyzed in duplicate.
# Experiments were performed on ATCC strains to verify probe specificity using a 16-sensor array “UTI chip” in which the UNI782C, EB1176C, EC434C, KE434C, PM187C, PA102C, and EF207C 5′-biotinylated capture probes (defined in Table 1) were tested in duplicate. The two remaining sensors in the array served as negative controls (using capture probe UNI782C without bacterial lysate). […]
# Enterococcus 16S rRNA = assay: Amperometric detection of bacterial 16S rRNA, 65° C. hybridization (Examples 2, 3); assay type: binding, Enterococcus faecalis; details: for sensitivity of electrochemical sensor assay (cells detected): five-fold serial dilutions of enterococcal cells, capture probe EF207C, EF165D 5′-fluorescein, EF171D 3′-fluorescein
# E. coli 16S rRNA = assay: Amperometric detection of E. coli 16S rRNA with short probes at ambient temperature (Example 5); assay type: binding, Escherichia coli; details: for sensitivity (threshold): fivefold dilutions of E. coli cells
# bacterial 16S rRNA [2] = assay: Species specificity of short probe pairs, 16 sensor array at ambient temperature (Example 5); assay type: binding
# [3] = test system: 16S rRNA in lysates of uropathogens; assay: Species specificity of uropathogen probe pairs with the electrochemical sensor array (Example 1); assay type: binding; details: probe pairs of Table 1
# bacterial 16S rRNA [4] = assay: Clinical validity study: UTI Chip on blinded clinical urine specimens; assay type: binding
# Procedure: Amperometric detection of bacterial 16S rRNA. An overview of the electrochemical sensor detection strategy is presented in panel C of FIG. 1. One ml of bacteria in Luria broth, inoculated clean urine, or clinical urine samples was centrifuged at 10,000×g for 5 min. The supernatant was discarded and the bacteria were lysed by resuspension of the pellet in 10 μl of 1 M NaOH and incubation at room temperature for 5 min. In some experiments, addition of 1M NaOH was preceded by resuspension of the bacterial pellet in 10 μl of 0.1% Triton X-100, 2 mM EDTA, and 1 mg/ml lysozyme (Sigma) in 20 mM Tris-HCl, pH 8.0, and incubation at room temperature for 5 min. 50 μl of the detector probe (0.25 μM) in 2.5% bovine serum albumin (Sigma, St. Louis, Mo.) 1 M phosphate buffer, pH 7.4, were added to the bacterial lysate and incubated for 10 min at 65° C. to allow target-probe hybridization. 4 μl of the bacterial lysate/detector probe mixture was deposited on each of the working electrodes in the sensor array and incubated for 15 min at 65° C. in a humidified chamber. After washing and drying, 4 μl of 0.5 U/ml anti-fluorescein horseradish peroxidase (HRP) Fab fragments (Roche, diluted in 0.5% casein in 10 mM phosphate buffered saline, pH 7.4) were deposited on each of the working electrodes for 15 min. After washing and drying, a prefabricated plastic well manifold (GeneFluidics, Monterey Park, Calif.) was bonded to the sensor array. The sensor array was put into the chip reader (FIG. 18) and 50 μl of 3,3′,5,5′-tetramethylbenzidine (TMB), H2O2 solution (K-Blue Low Activity TMB Substrate, Neogen, Lexington, Ky.) was placed on each of the sensors in the array so as to cover all three electrodes of each sensor. Electrochemical measurements are immediately and simultaneously taken for all 16 sensors. For each array, negative control (NC) sensors were tested including the UNI capture probe, detector probe, and 2.5% bovine serum albumin (Sigma, St, Louis, Mo.) in 1 M phosphate buffer, pH 7.4, instead of bacterial lysate. The entire assay protocol was completed within 45 min from the time when bacterial lysis was commenced. Amperometric current vs. time was measured using a multichannel potentiostat (GeneFluidics). The voltage was fixed at −200 mV (vs. reference), and the electroreduction current was measured at 60 s after the HRP redox reaction reached steady state.
# Clinical validity study design. Clinical urine specimens were received from routine urine cultures collected from inpatients and outpatients and submitted to the UCLA Clinical Microbiology Laboratory. Routine plating on tripticase soy agar with 5% sheep blood was performed on each specimen for phenotypic identification and colony counting while an aliquot of each specimen was held at 4° C. overnight. On the day after plating, specimens were selected for inclusion in the study on the basis of a rapid indole test for the purpose of including uropathogens other than Escherichia coli in approximately one-half of the specimens. The other half of the specimens were divided between E. coli-containing specimens and specimens determined to have ““no significant growth” or no growth” (see definitions below). Because most UTIs involve a single uropathogen, specimens determined by the clinical microbiology laboratory to have more than one organism present were excluded. Blinded specimens selected for inclusion in the study were stripped of patient identifiers and any microbiological data before delivery to the research laboratory for testing with the electrochemical sensor array.
# Experiments were performed on all specimens using the 16-sensor array ‘UTI Chip’, in which the UNI, EB, EC, PM, KE, PA, and EF capture probes (defined in Tables 1 and 2) were tested in duplicate. The two remaining sensors served as negative controls (including capture and detector probes without bacterial lysate). […]
# [5] = specimens with Proteus mirabilis
# [6] = specimens with Escherichia coli
molecule,measurement,setting,value
GGGTTCATCCGATAGTGCAAGGTCCGAAGAGCCCC (DNA GGGTTCATCCGATAGTGCAAGGTCCGAAGAGCCCC; chemistry not given here; listed as Proteus mirabilis) [PM188C],capture probe specificity,bacterial 16S rRNA [1],specific for P. mirabilis
GTCAATCGNCRAGGTTATTAACCTYAHCGCCTTCC (DNA GTCAATCGMCRAGGTTATTAACCTYAHCGCCTTCC; chemistry not given here; listed as Klebsiella pneumoniae) [KE434C],capture probe specificity,bacterial 16S rRNA [1],positive for all Enterobacteriaceae except E. coli
CCGCGGGTCCATCCATCAGCGACACCCGAAAGCGC (DNA CCGCGGGTCCATCCATCAGCGACACCCGAAAGCGC; sugars by position and backbone not given here; further chemistry not fully specified; listed as Enterococcus sp.) [EF171D],improvement in sensitivity,Enterococcus 16S rRNA; 3′-fluorescein and continuity of hybridization sites vs 5′-fluorescein with gap,24-25 fold
same,sensitivity of electrochemical sensor assay (cells detected),Enterococcus 16S rRNA,"9,400 cells"
CGGACTACGACRYACTTTATGAGGTCCGCTTGCTC (DNA CGGACTACGACRYACTTTATGAGGTCCGCTTGCTC; chemistry not given here; listed as Enterobacter sp.) [EB1172C],capture probe specificity,bacterial 16S rRNA [1],positive for all members of the family Enterobacteriaceae tested and negative for P. aeruginosa and E. faecalis
CCCACTTTCTCCCTCAGGACGTATGCGGTATTAGC (DNA CCCACTTTCTCCCTCAGGACGTATGCGGTATTAGC; chemistry not given here; listed as Pseudomonas aeruginosa) [PA111C],capture probe specificity,bacterial 16S rRNA [1],P. aeruginosa
GTCCATCCATCAGCGACACCCGAAAGCGCCTTTCA (DNA GTCCATCCATCAGCGACACCCGAAAGCGCCTTTCA; sugars by position and backbone not given here; listed as Enterococcus sp.) [EF165D],sensitivity of electrochemical sensor assay (cells detected),Enterococcus 16S rRNA,"232,000 cells"
"EC439C (15 mer)/EC424D (15 mer): E. coli probe pair, SEQ ID NO: 44 and 45 (DNA 1 TATTAACTTTACTCC; DNA 2 CTTCCTCCCCGCTGA; chemistry not given here; listed as Escherichia coli)",mean current,E. coli 16S rRNA,1605 negative nanoamperes
same,sensitivity (threshold),E. coli 16S rRNA; listed as 15mer capture and detector probes,approximately 250 cells
same,sensitivity (threshold),E. coli 16S rRNA; listed as E. coli-specific 15mer probe pairs,approximately 173 cells
same,cross-reactivity with P. aeruginosa,bacterial 16S rRNA [2]; ambient temperature,Weak cross-reactivity
same,Species detected,bacterial 16S rRNA [2]; ambient temperature hybridization,Ec
same,Species not detected,"bacterial 16S rRNA [2]; ambient temperature, * cross-reactivity at a level significantly less than with the target species","Ea, Ef, Kp, Pa*, Pm"
CATCGTTTACGGCGTGGACTACCAGGG (DNA CATCGTTTACGGCGTGGACTACCAGGG; chemistry not given here) [UNI782C],capture probe specificity,bacterial 16S rRNA [1],detected all bacterial uropathogens tested
GTCAATGAGCAAAGGTATTAACTTTACTCCCTTCC (DNA GTCAATGAGCAAAGGTATTAACTTTACTCCCTTCC; chemistry not given here; listed as Escherichia coli) [EC434C],capture probe specificity,bacterial 16S rRNA [1],positive for E. coli
TTGGTGAGCCGTTACCTCACCAACTAGCTAATGCA (DNA TTGGTGAGCCGTTACCTCACCAACTAGCTAATGCA; chemistry not given here; listed as Enterococcus sp.) [EF207C],capture probe specificity,bacterial 16S rRNA [1],E. faecalis
B1,Species detected,[3],Pm
same,Species not detected,[3],"Cf, Ea, Ec, El, Eo, Ko, Kp, Pa"
same,Mean (range),bacterial 16S rRNA [4]; [5],0.74 (0.48-0.96) log10 units over background
same,Positive/Total = Percent,bacterial 16S rRNA [4]; [5],Pm 3/3 = 100%
B2,Species detected,[3],Ec
same,Species not detected,[3],"Cf, Ea, El Eo, Ko, Kp,; also recorded: Pa, Pm"
same,Mean (range),bacterial 16S rRNA [4]; [6],1.06 (0.48-1.59) log10 units over background
same,Positive/Total = Percent,bacterial 16S rRNA [4]; [6],Ec 26/26 = 100%
